Reference: publication PMC5608804, “Stepwise Evolution Improves Identification of Diverse Peptides Binding to a Protein Target” (Scientific Reports, 2017)

molecular target: T1, streptavidin (Streptomyces avidinii, UniProt P22629); assay: Cy5-streptavidin binding on HotSpot discovery array, 5-mer L-peptide library; conditions: 5-mer L-peptide library array, Cy5-streptavidin; from average of three arrays
T1 construct: purchased GE Healthcare (Little Chalfont, UK)
From the text: To identify hotspot sequences that bind to streptavidin (SA), we bound Cy5-SA to an array library of 2,476,099 5-mer L-peptides synthesized with 19 of 20 natural amino acids (excluding cysteine). The fluorescence signal intensity was aggregated across three independently synthesized arrays; then the 2,047 peptides with a signal-to-background ratio (S/B) >4 were selected. The data was further filtered to select 1,100 peptides for which signal intensities were highly correlated on all 3 arrays (the percentage of mean deviation to mean was <10%, see Supplementary dataset Table 2A). Most selected sequences (1,019 of 1,100) contained HP, PQ, or PM sequences: their presence would be expected in the well-known HPQ and HPM streptavidin binders[13]–[18].
The comprehensive peptide library included 2,476,099 5-mer peptides synthesized in a single copy with 19 of 20 L- or D-amino acids (excluding cysteine). Libraries were flanked on both N- and C-termini by linkers of 1 or 3 amino acids using a 3:1 glycine-serine mixture.
Cy5™-streptavidin (Cy5-SA) was purchased from GE Healthcare (Little Chalfont, UK). Freshly deprotected arrays were used in each experiment. Streptavidin binding to all arrays was performed with 0.5 µg/ml Cy5-SA either in binding buffer containing 10 mM Tris-HCl (pH 7.4), 1% alkali-soluble casein (EMD Millipore), 0.05% Tween-20 or in 10 mM Tris-HCl (pH 7.4), 4% BSA (Roche, Basel, Switzerland), 0.05% Tween-20 in a 30 mL PAP Jar container (Evergreen Scientific, Vernon, CA) overnight at 4° C. After incubation, arrays were washed in 20 mM Tris-HCl (pH 7.8), 0.2 M NaCl, 1% SDS or 1X TBS (pH 7.4) for 30 sec followed by a 1 min wash in water, and then dried by spinning in a microcentrifuge equipped with an array holder.
Cy5 fluorescence intensity of the arrays was measured with an MS200 scanner (Roche NimbleGen, Madison, WI) at resolution 2 µm, wavelength 635 nm, gain 25%, and laser intensity 100%. Cy5 signal intensities were extracted using Image Extraction Software (Roche NimbleGen). Data pre-processing, normalization, and statistical tests were performed using the language R. Data visualization and analysis was performed with the Spotfire 6.5.0 (Tibco, Boston, MA) software platform. Distance analysis and principle component analysis of distance matrices were performed with the R package PEPLIB[19].

T1 sequence (P22629 25-183): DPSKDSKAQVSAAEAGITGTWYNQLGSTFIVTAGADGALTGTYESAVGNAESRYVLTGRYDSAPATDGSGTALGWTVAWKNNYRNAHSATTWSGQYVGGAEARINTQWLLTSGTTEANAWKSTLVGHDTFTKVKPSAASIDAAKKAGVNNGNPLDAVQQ

| Substance | S/B (signal to background ratio) |
| --- | --- |
| WIHPQ | 166.2 |
| MWHPQ | 192.7 |
| LAQFH [L-amino acid 5-mer array peptide] | 39.7 |
| MGHPQ | 175.3 |
| AFHPQ | 177.5 |
| RHPQQ | 43.6 |
| HPQQS | 19.2 |
| NHPQQ | 42.3 |
| HPQSS | 28.2 |
| MHPQQ | 29.0 |
| LAEYH [L-amino acid 5-mer array peptide] | 45.0 |
| TYHPQ | 168.9 |
| NMHPQ | 136.2 |
| FVHPQ | 150.1 |
| HPQND | 53.5 |
| ALHPM | 39.7 |
| YFHPQ | 183.4 |
| MKHPM | 20.4 |
| WHPMV | 49.4 |
| HPQNI | 48.9 |
| MFHPQ | 198.9 |
| FHHPQ | 219.2 |
| WHPQK | 42.1 |
| TGHPM | 53.4 |
| VRHPQ | 151.4 |
| FHPMS | 46.0 |

| Substance | S/B (signal to background ratio) |
| --- | --- |
| KYHPQ | 140.2 |
| TGHPQ | 128.8 |
| VLHPM | 32.2 |
| RTHPQ | 125.7 |
| MHPMG | 42.9 |
| TMHPM | 25.5 |
| QYHPQ | 195.0 |
| ISHPQ | 142.0 |
| LFHPQ | 138.2 |
| LHPMS | 22.2 |
| HPQWG | 26.9 |
| RAHPQ | 147.2 |
| PYHPQ | 151.0 |
| HPMFG | 21.9 |
| MAAHF [L-amino acid 5-mer array peptide] | 25.6 |
| NYHPQ | 182.7 |
| YSHPQ | 171.8 |
| IQHPQ | 139.6 |
| YIHPQ | 131.4 |
| WTHPQ | 181.7 |
| HPQIG | 31.0 |
| FHPQQ | 49.0 |
| WHHPM | 129.3 |
| LNHPQ | 152.2 |
| NKHPM | 20.7 |
| WGHPQ | 216.3 |

| Substance | S/B (signal to background ratio) |
| --- | --- |
| LMHPQ | 161.1 |
| HPQNK | 28.4 |
| FHPQW | 22.2 |
| AGHPQ | 137.1 |
| GVHPM | 31.6 |
| GPHPQ | 144.4 |
| LSHPM | 55.5 |
| PSHPQ | 136.6 |
| MHPQN | 120.0 |
| RVHPQ | 126.3 |
| WHPQS | 129.8 |
| IKHPM | 19.0 |
| TRHPM | 53.7 |
| EHPQR | 45.0 |
| HPQNR | 50.5 |
| VSHPQ | 129.8 |
| FYHPQ | 202.7 |
| ALHPQ | 123.6 |
| HPQHN | 28.0 |
| SHHPQ | 155.1 |
| MMHPM | 48.8 |
| WHHPQ | 200.9 |
| SMHPQ | 142.0 |
| KMHPM | 22.0 |

same assay, conditions: 5-mer L-peptide library array, Cy5-streptavidin; from the average of three arrays

| Substance | S/B (signal to background ratio) |
| --- | --- |
| HPQNF | 94.0 |
| HPQVA | 67.2 |
| HPQGH | 86.0 |
| SVHPQ | 116.5 |
| GRHPM | 62.1 |
| MFHPM | 85.4 |
| HMHPM | 61.8 |
| TLHPQ | 111.0 |
| TWHPM | 59.8 |
| LAAYH [L-amino acid 5-mer array peptide] | 67.7 |
| AHPQS | 79.9 |
| PKHPQ | 80.7 |
| TIHPQ | 92.6 |
| DTHPQ | 68.3 |
| GHPQA | 110.5 |
| ENHPQ | 78.3 |
| THHPM | 58.0 |

| Substance | S/B (signal to background ratio) |
| --- | --- |
| HHHPM | 67.1 |
| HPQGW | 60.3 |
| HPQVS | 77.3 |
| RHPQV | 94.3 |
| WWHPQ | 111.4 |
| YGHPM | 108.1 |
| HPQFN | 113.3 |
| IHPMA | 70.9 |
| FSHPM | 91.4 |
| DSHPQ | 74.0 |
| FMHPM | 101.3 |
| WHPQM | 100.1 |
| YHPQQ | 76.2 |
| FIHPM | 68.2 |
| FVHPM | 72.0 |
| HPQFT | 92.5 |
| MRHPM | 60.6 |

same assay, conditions: 5-mer L-peptide library, from the average of three arrays

| Substance | S/B (signal to background ratio) |
| --- | --- |
| HPQQK | 4.4 |
| YHPPQ | 4.7 |
| HPMST | 4.2 |
| HPRQF | 4.3 |
| WHGPQ | 4.5 |
| WHMPQ | 4.6 |
| HPRWM | 4.5 |
| THPMK | 4.1 |
| RHPMD | 4.3 |
| FMFMF [L-amino acid 5-mer array peptide] | 4.2 |
| HPMNH | 4.4 |
| AHPQP | 4.1 |
| MHPMW | 4.3 |
| GHPQP | 4.5 |

same assay, conditions: average of three arrays, L-peptide 5-mer library

| Substance | S/B (signal to background ratio) |
| --- | --- |
| LAQFH [L-amino acid 5-mer array peptide] | 39.7 |
| LAEYH [L-amino acid 5-mer array peptide] | 45.0 |
| FDTWL [L-amino acid 5-mer array peptide] | 7.3 |
| LAAYH [L-amino acid 5-mer array peptide] | 67.7 |
| LGKYH [L-amino acid 5-mer array peptide] | 6.7 |
| LGSFH [L-amino acid 5-mer array peptide] | 8.7 |
| MAAHF [L-amino acid 5-mer array peptide] | 25.6 |
| FMFMF [L-amino acid 5-mer array peptide] | 4.2 |
| MLAHF [L-amino acid 5-mer array peptide] | 7.2 |
| MPGHF [L-amino acid 5-mer array peptide] | 5.6 |
| MANHF [L-amino acid 5-mer array peptide] | 6.0 |
| NWDQW [L-amino acid 5-mer array peptide] | 6.7 |

same assay, conditions: signal to background ratio; 5-mer L-peptide library array, Cy5-streptavidin

| Substance | S/B |
| --- | --- |
| HPAFM | 5.7 |
| HHPQL | 5.7 |
| EHPQQ | 16.2 |
| HPVPP | 12.4 |
| HPMQG | 16.2 |
| FDTWL [L-amino acid 5-mer array peptide] | 7.3 |
| HPMGW | 18.2 |
| HPQRS | 15.9 |
| HPMMA | 5.3 |
| PHPMH | 8.8 |
| HPQYW | 5.7 |
| EAHPM | 16.5 |
| LGKYH [L-amino acid 5-mer array peptide] | 6.7 |
| HPMQN | 8.8 |
| LGSFH [L-amino acid 5-mer array peptide] | 8.7 |
| QHPQK | 15.8 |
| PHPMF | 10.9 |
| HPMAQ | 7.2 |
| HPQFK | 17.7 |
| HPMTP | 5.6 |
| DSHPM | 17.9 |
| HPQST | 12.9 |

| Substance | S/B |
| --- | --- |
| QHPMI | 6.4 |
| THPMH | 9.5 |
| MLAHF [L-amino acid 5-mer array peptide] | 7.2 |
| MPGHF [L-amino acid 5-mer array peptide] | 5.6 |
| HPMFV | 7.5 |
| HPQPF | 5.7 |
| AHPQT | 18.8 |
| MHPQK | 9.8 |
| HPMFL | 5.4 |
| HPQRH | 8.8 |
| HPQDG | 15.1 |
| THPMY | 10.9 |
| HPMNR | 5.6 |
| MANHF [L-amino acid 5-mer array peptide] | 6.0 |
| HPMGT | 12.0 |
| NWDQW [L-amino acid 5-mer array peptide] | 6.7 |
| HPMGL | 9.0 |
| HPQYQ | 15.5 |
| HPQIF | 6.3 |
| HPMNE | 5.7 |
| VHPMQ | 9.6 |
